Assay results reported in US9272927B2, “Method for preventing growth of microorganisms, and a combination for the prevention of microbial growth” (KEMIRA, OYJ, priority 2006, dated 2016).

Columns and labels:
Type in all cases: cell-based
[1] = system: aerobic bacteria present in broke; assay: Bactericidal test on dilute broke of a board machine (Example 1); conditions: BCDMH 30 ppm alone; contact time 24 hours
Procedure: Dilute broke of a board machine (pH 7.8, oxidation reduction potential (ORP) 40 mV) was divided into 10 separate jars, and biocides to be tested were dosed. Concentrations are expressed in ppm (mg/l) of the commercially available product. In tests where two different agents were dosed into a single jar, the jar was closed after the first pipetting, the broke sample was vigorously agitated, followed by the addition of the second agent during 5 to 10 minutes. Jars were incubated under conditions corresponding to those in the broke system (45° C., mixing), and thereafter, viable aerobic bacterial counts were determined by cultivation after exposure periods of 4 and 24 hours.
In this bactericidal test on broke, killing efficacy of BCDMH and ePAA used alone and in combinations were compared, two thirds of BCDMH being replaced in the combinations with peracetic acid used in threefold amounts. For instance BCDMH 10 ppm versus ePAA 30 ppm versus BCDMH 3.3 ppm+ePAA 20 ppm.
The combination “BCDMH 3.3 ppm+ePAA 20 ppm” means that BCDMH was added prior to ePAA.

[2] = system: aerobic bacteria present in circulation water; assay: Bactericidal test on circulation water from an alkaline fine paper machine, agar plate count (Example 6); conditions: for killing of bacteria: 3 hours; for re-growth of bacteria: single biocide only, dosages that had yielded an efficient kill, within 1 day
Procedure: Circulation water (pH 8.2, ORP+169 mV) was collected from an alkaline fine paper machine (producing uncoated copy paper) and divided in 11 plastic containers. When two different biocides were dosed in to same container, the peracid was dosed first, the sample mixed thoroughly, and the second biocide was added within 5 to 10 minutes. All biocide dosages are reported as ppm (mg/l) of the commercial product, for example 20 ppm of performic acid (PFA) equilibrium product equals about 2 ppm as performic acid active substance, 12 ppm of BCDMH product equals about 4 ppm as active chlorine and 30 ppm of MCDMH product equals about 3 ppm as active chlorine. After biocide dosing the containers were capped and incubated at paper machine temperature (45° C.) with continuous agitation. The killing efficacy of different biocide dosages was measured 3 hours and 1 day after the biocide dosing using agar plate count method (PCA agar, 45° C., and 2 days).

[3] = system: biofilm of a mixture of adherent bacteria (Deinococcus geothermalis, Pseudoxanthomonas taiwanensis and Meiothermus silvanus); assay: Test for destructing a biofilm on stainless steel pegs, regrowth of new biofilm stained with safranin (Example 5); set-up: key: ++++: great amounts of biofilm were formed; ++: clearly reduced formation of the new biofilm, but not the complete inhibition thereof; −: completely inhibiting the new biofilm; conditions: total contact time 3 hours
Procedure: A test for destructing a biofilm was performed as described in the document FI 117056 B (Kemira Oyj). A biofilm was pregrown on lidplates having stainless steel pegs (3 d, 45° C., agitation at 150 rpm.). Clear filtrate of a fine paper machine served as the water (pH 7.6, ORP 71 mV), while a mixture of adherent bacteria (Deinococcus geothermalis, Pseudoxanthomonas taiwanensis and Meiothermus silvanus) grown in the laboratory was used for inoculation. After identical biofilms were grown on all the pegs of the lids, the lids were removed from the clear filtrate used for cultivation, washed with tap water and placed on plastic plates with 12 wells, one peg per well. 3.5 ml of the clear filtrate from the same paper machine, and the biocides to be tested were added in advance to each well. The pegs with biofilms were first immersed into the wells for 15 minutes, followed by removal of the plates for a moment for the addition of the other components of the biocidal combinations to the wells. Exposure to biocides was continued to attain a total contact time of 3 hours. Then, viability of the biofilms was determined by transferring the peglids to fresh 12-well plates where each well contained 2 ml of sterile cultivation broth, followed by cultivating the plates for 19 hours at 45° C. while mixing at 150 rpm. […]

Q: With CC1(C)C(=O)N(Cl)C(=O)N1Br [BCDMH, bromochlorodimethyl hydantoin] as the molecule, how does the inhibition of regrowth [1] read?
A: inhibited more effectively by BCDMH 30 ppm than PAA alone

Q: And the killing of bacteria ([2]; 12 ppm of BCDMH alone)?
A: most efficient

Q: And the re-growth of bacteria [2]?
A: active re-growth of bacteria had occurred

Q: And the “formation of new biofilm” value ([3]; 16 ppm of BCDMH alone)?
A: ++

Q: For CC1(C)C(=O)NC(=O)N1Cl [MCDMH, monochlorodimethyl hydantoin], which killing of bacteria ([2]; 45 ppm of MCDMH alone) is on record?
A: most efficient

Q: And the re-growth of bacteria [2]?
A: active re-growth of bacteria had occurred

Q: What about the “formation of new biofilm” value ([3]; 60 ppm of MCDMH alone) of the same molecule?
A: ++++
